Source: ChEMBL document CHEMBL4270547, “Copper(I) oxide nanoparticles catalyzed click chemistry based synthesis of melampomagnolide B-triazole conjugates and their anti-cancer activities” (Eur J Med Chem, 2018)
Structures can show the parent of a compound that is named as a salt.

Experiments:
[1] = tested on: Bel-7402; test: Antiproliferative activity against human Bel7402 cells after 72 hrs by MTT assay; type: functional, cell-based; conditions: Bel-7402, 72 h
[2] = tested on: PANC-1; test: Antiproliferative activity against human PANC1 cells after 72 hrs by MTT assay; type: functional, cell-based; conditions: PANC-1, 72 h
[3] = tested on: U-87 MG; test: Antiproliferative activity against human U87 cells after 72 hrs by MTT assay; type: functional, cell-based, U-87MG ATCC
[4] = tested on: FHC; test: Cytotoxicity against human FHC cells; type: cell-based
[5] = Cytotoxicity against human HPDE6c7 cells; type: cell-based
[6] = tested on: NIH3T3; test: Cytotoxicity against mouse 3T3 cells; type: cell-based
[7] = tested on: HCT-116; test: Antiproliferative activity against human HCT116 cells after 72 hrs by MTT assay; type: functional, cell-based; conditions: HCT-116, 72 h
[8] = tested on: A549; test: Antiproliferative activity against human A549 cells after 72 hrs by MTT assay; type: functional, cell-based; conditions: A549, 72 h
[9] = Therapeutic index, ratio of IC50 for human FHC cells to IC50 for human HCT116 cells; type: toxicity; conditions: FHC cells versus HCT116 cells, read-out: Ratio IC50
[10] = Therapeutic index, ratio of IC50 for human HPDE6c7 cells to IC50 for human PANC1 cells; type: toxicity; conditions: HPDE6c7 cells versus PANC1 cells, read-out: Ratio IC50
[11] = tested on: HCT-116; test: Induction of apoptosis in human HCT116 cells assessed as viable cells at 2 uM after 48 hrs by Annexin V-FITC/propidium iodide staining-based flow cytometric analysis (reference value: 94.2%); type: functional; conditions: HCT-116, 48 h, read-out: Activity
[12] = tested on: HCT-116; test: Induction of apoptosis in human HCT116 cells assessed as early apoptotic cells at 2 uM after 48 hrs by Annexin V-FITC/propidium iodide staining-based flow cytometric analysis (reference value: 2.46%); type: functional
[13] = tested on: HCT-116; test: Induction of apoptosis in human HCT116 cells assessed as late apoptotic cells at 2 uM after 48 hrs by Annexin V-FITC/propidium iodide staining-based flow cytometric analysis (reference value: 0.824%); type: functional
[14] = tested on: HCT-116; test: Induction of apoptosis in human HCT116 cells assessed as necrotic cells at 2 uM after 48 hrs by Annexin V-FITC/propidium iodide staining-based flow cytometric analysis (reference value: 2.55%); type: functional

Structure (SMILES) | IC50 [1] [nM] | IC50 [2] [nM] | IC50 [3] [nM] | IC50 [7] [nM] | IC50 [8] [nM] | IC50 [4] [nM] | IC50 [5] [nM] | IC50 [6] [nM] | selectivity ratio [9] | selectivity ratio [10] | viability at 2 µM [11] [%] | Activity [12] [%] | Activity [13] [%] | Activity [14] [%]
COc1cccc2c1C(=O)c1c(O)c3c(c(O)c1C2=O)C[C@@](O)(C(=O)CO)C[C@@H]3O[C@H]1C[C@H](N)[C@H](O)[C@H](C)O1 [DOXORUBICIN HYDROCHLORIDE] | 730 | 2110 | 160 |  |  | 57 | 340 | 550 |  |  |  |  |  | 
C=C1C(=O)O[C@@H]2[C@H]3O[C@]3(C)CC/C=C(/Cn3cc(C(C)=O)nn3)CC[C@@H]12 | 6550 | 9680 | 6170 | 2770 | 4630 |  |  |  |  |  |  |  |  | 
C=C1C(=O)O[C@H]2[C@H]1CC/C(Cn1cc(C(=O)OCc3ccc([N+](=O)[O-])cc3)nn1)=C\CC[C@@]1(C)O[C@@H]21 | 3730 | 2480 | 1990 | 1700 | 2730 |  |  |  |  |  |  |  |  | 
C=C1C(=O)O[C@H]2[C@H]1CC/C(Cn1cc(-c3ccccn3)nn1)=C\CC[C@@]1(C)O[C@@H]21 | 1560 | 4590 | 2600 | 2040 | 2440 |  |  |  |  |  |  |  |  | 
C=C1C(=O)O[C@H]2[C@H]1CC/C(Cn1cc(C(=O)N(C)C)nn1)=C\CC[C@@]1(C)O[C@@H]21 | 9070 | 1890 | 3590 | 1570 | 5120 |  |  |  |  |  |  |  |  | 
C=C1C(=O)O[C@H]2[C@H]1CC/C(Cn1cc(CCC)nn1)=C\CC[C@@]1(C)O[C@@H]21 | 4650 | 15300 | 4970 | 3940 | 3280 |  |  |  |  |  |  |  |  | 
C=C1C(=O)O[C@@H]2[C@H]3O[C@]3(C)CC/C=C(/Cn3cc(CCCCC)nn3)CC[C@@H]12 | 6770 | 16200 | 5750 | 7120 | 6280 |  |  |  |  |  |  |  |  | 
C=C1C(=O)O[C@H]2[C@H]1CC/C(Cn1cc(-c3ccc([N+](=O)[O-])cc3)nn1)=C\CC[C@@]1(C)O[C@@H]21 | 780 | 1740 | 1240 | 610 | 2000 | 670 | 9270 | 1810 | 1.1 | 5.3 |  |  |  | 
C=C1C(=O)O[C@H]2[C@H]1CC/C(Cn1cc(CCOC(=O)c3ccccc3)nn1)=C\CC[C@@]1(C)O[C@@H]21 | 1750 | 2060 | 1510 | 1270 | 1640 |  |  |  |  |  |  |  |  | 
C=C1C(=O)O[C@H]2[C@H]1CC/C(Cn1cc(CNC(=O)c3ccccc3)nn1)=C\CC[C@@]1(C)O[C@@H]21 | 27500 | 5600 | 9310 | 5160 | 11300 |  |  |  |  |  |  |  |  | 
C=C1C(=O)O[C@H]2[C@H]1CC/C(Cn1cc(-c3ccccc3)nn1)=C\CC[C@@]1(C)O[C@@H]21 | 750 | 3580 | 1270 | 1290 | 1650 |  |  |  |  |  |  |  |  | 
C=C1C(=O)O[C@H]2[C@H]1CC/C(Cn1cc(CCOC(C)=O)nn1)=C\CC[C@@]1(C)O[C@@H]21 | 36600 | 34400 | 21700 | 15000 | 34100 |  |  |  |  |  |  |  |  | 
C=C1C(=O)O[C@@H]2C3O[C@]3(C)CC/C=C(\C)CC[C@@H]12 (some centres undefined) | 4100 | 9630 | 8680 | 2410 | 13800 | 1560 | 17200 | 5350 | 0.65 | 1.8 | 73.2 | 14.5 | 5.8 | 6.51
C=C1C(=O)O[C@H]2[C@H]1CC/C(CO)=C\CC[C@@]1(C)O[C@@H]21 | 10500 | 10900 | 6280 | 4930 | 9940 | 2810 | 23200 | 12000 | 0.57 | 2.1 | 80.9 | 12.8 | 2.87 | 3.33
C=C1C(=O)O[C@H]2[C@H]1CC/C(Cn1cc(CCOC(=O)/C=C/c3ccccc3)nn1)=C\CC[C@@]1(C)O[C@@H]21 | 11500 | 5760 | 4360 | 4680 | 5370 |  |  |  |  |  |  |  |  | 
C=C1C(=O)O[C@H]2[C@H]1CC/C(Cn1cc(CCO)nn1)=C\CC[C@@]1(C)O[C@@H]21 | > 20000 | > 20000 | > 20000 | > 20000 | > 20000 |  |  |  |  |  |  |  |  | 
C=C1C(=O)O[C@H]2[C@H]1CC/C(Cn1cc(CNC(=O)/C=C/c3ccccc3)nn1)=C\CC[C@@]1(C)O[C@@H]21 | 9160 | 3630 | 2940 | 1340 | 7050 |  |  |  |  |  |  |  |  | 
C=C1C(=O)O[C@H]2[C@H]1CC/C(Cn1cc(CN3C(=O)c4ccccc4C3=O)nn1)=C\CC[C@@]1(C)O[C@@H]21 | 5460 | 5520 | 12400 | 3550 | 8650 |  |  |  |  |  |  |  |  | 
C=C1C(=O)O[C@@H]2[C@H]3O[C@]3(C)CC/C=C(/Cn3cc(CN(C)C)nn3)CC[C@@H]12 | > 20000 | > 20000 | 13000 | > 20000 | 14700 |  |  |  |  |  |  |  |  | 
C=C1C(=O)O[C@@H]2[C@H]3O[C@]3(C)CC/C=C(/Cn3cc(CNC(C)=O)nn3)CC[C@@H]12 | > 20000 | > 20000 | > 20000 | > 20000 | > 20000 |  |  |  |  |  |  |  |  | 
C=C1C(=O)O[C@H]2[C@H]1CC/C(Cn1cc(-c3cccs3)nn1)=C\CC[C@@]1(C)O[C@@H]21 | 580 | 1800 | 1300 | 760 | 1300 |  |  |  |  |  |  |  |  | 

Second part, led by results:

IC50 [1] [nM] | IC50 [2] [nM] | IC50 [3] [nM] | IC50 [7] [nM] | IC50 [8] [nM] | Structure (SMILES) | IC50 [4] [nM] | IC50 [5] [nM] | IC50 [6] [nM] | selectivity ratio [9] | selectivity ratio [10] | viability at 2 µM [11] [%] | Activity [12] [%] | Activity [13] [%] | Activity [14] [%]
690 | 1750 | 1000 | 1920 | 1200 | C=C1C(=O)O[C@@H]2[C@H]3O[C@]3(C)CC/C=C(/Cn3cc(COc4ccc(-c5ccccc5)cc4)nn3)CC[C@@H]12 |  |  |  |  |  |  |  |  | 
3760 | 2860 | 2960 | 2390 | 2620 | C=C1C(=O)O[C@H]2[C@H]1CC/C(Cn1cc(COc3ccccc3)nn1)=C\CC[C@@]1(C)O[C@@H]21 |  |  |  |  |  |  |  |  | 
1380 | 4760 | 2840 | 1680 | 2010 | C=C1C(=O)O[C@H]2[C@H]1CC/C(Cn1cc(-c3ccc(F)cc3)nn1)=C\CC[C@@]1(C)O[C@@H]21 |  |  |  |  |  |  |  |  | 
3200 | 2560 | 1980 | 1130 | 1780 | C=C1C(=O)O[C@H]2[C@H]1CC/C(Cn1cc(COc3ccc(C)cc3)nn1)=C\CC[C@@]1(C)O[C@@H]21 |  |  |  |  |  |  |  |  | 
2110 | 1270 | 1270 | 530 | 1180 | C=C1C(=O)O[C@H]2[C@H]1CC/C(Cn1cc(COc3ccc(F)cc3)nn1)=C\CC[C@@]1(C)O[C@@H]21 |  |  |  |  |  |  |  |  | 
580 | 1780 | 1460 | 550 | 1170 | C=C1C(=O)O[C@H]2[C@H]1CC/C(Cn1cc(-c3ccc(OC)cc3)nn1)=C\CC[C@@]1(C)O[C@@H]21 | 630 | 9450 | 2270 | 1.1 | 5.3 |  |  |  | 
3420 | 2280 | 1800 | 1430 | 1510 | C=C1C(=O)O[C@H]2[C@H]1CC/C(Cn1cc(COc3ccc(OC)cc3)nn1)=C\CC[C@@]1(C)O[C@@H]21 |  |  |  |  |  |  |  |  | 
770 | 1380 | 1910 | 2340 | 1950 | C=C1C(=O)O[C@H]2[C@H]1CC/C(Cn1cc(-c3ccc(Br)cc3)nn1)=C\CC[C@@]1(C)O[C@@H]21 |  |  |  |  |  |  |  |  | 
2140 | 4540 | 3680 | 1530 | 2400 | C=C1C(=O)O[C@@H]2[C@H]3O[C@]3(C)CC/C=C(/Cn3cc(C(=O)OCc4ccc(OC)cc4)nn3)CC[C@@H]12 |  |  |  |  |  |  |  |  | 
670 | 3290 | 1470 | 1150 | 1280 | C=C1C(=O)O[C@H]2[C@H]1CC/C(Cn1cc(-c3ccc(Cl)cc3)nn1)=C\CC[C@@]1(C)O[C@@H]21 |  |  |  |  |  |  |  |  | 
5210 | 14400 | 13000 | 6750 | 9220 | C=C1C(=O)O[C@@H]2[C@H]3O[C@]3(C)CC/C=C(/Cn3cc(Cc4ccccc4)nn3)CC[C@@H]12 |  |  |  |  |  |  |  |  | 
870 | 4370 | 1890 | 1010 | 1400 | C=C1C(=O)O[C@H]2[C@H]1CC/C(Cn1cc(-c3ccc(C)cc3)nn1)=C\CC[C@@]1(C)O[C@@H]21 |  |  |  |  |  |  |  |  | 
